According to BindingDB's records for doi:10.1021/jm00114a015 (National Institute of Diabetes and Digestive and Kidney …, 1991):

How the values were obtained:
[1] = Compound was tested for the inhibitory activity against Sigma opioid receptor by using [3H](+)-3-PPP as radioligand in guinea pig brain
[2] = as above; remark: listed apart in the source

| Structure (SMILES) | Ki [1] | Ki [2] |
| --- | --- | --- |
| CCCN(CCc1ccc(Cl)c(Cl)c1)[C@H]1CCCC[C@H]1N1CCCC1 | 140 nM | – |
| CCCN(CCc1ccc(Cl)c(Cl)c1)[C@@H]1CCCC[C@@H]1N1CCCC1 | 56 nM | – |
| CCN(CCc1ccc(Cl)c(Cl)c1)[C@@H]1CCCC[C@@H]1N1CCCC1 | – | 3.5 nM |
| CCN(CCc1ccc(Cl)c(Cl)c1)[C@H]1CCCC[C@H]1N1CCCC1 | 3.1 nM | – |
| CN(Cc1ccc(Cl)c(Cl)c1)[C@H]1CCCC[C@H]1N1CCCC1 | – | 1.2 nM |
